In the supplement of paper PMC10307832:

Experiments:
Experiment in all cases: relative viability (nuclei count vs DMSO), 5 days (fraction); higher = more cells survive
Bemcentinib + Pictilisib = compound: Nc1nc(Nc2ccc3c(c2)CC[C@@H](N2CCCC2)CC3)nn1-c1cc2c(nn1)-c1ccccc1CCC2 [Bemcentinib] + CS(=O)(=O)N1CCN(Cc2cc3nc(-c4cccc5[nH]ncc45)nc(N4CCOCC4)c3s2)CC1 [Pictilisib] (partner 1 µM)
Outline: (§1)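 Lung cancer cell lines were pin-tool dosed in 1536-well plates on the day after seeding, with either a lone drug or a fixed anchor-drug dose plus five library-drug doses (not always all listed) in √10 steps. Nuclei were counted on 4× images after 5 days. Relative viability is the ratio of treated-well to vehicle-well nuclei counts, with each value a median of duplicate plates.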

Bemcentinib + Bortezomib = compound: Nc1nc(Nc2ccc3c(c2)CC[C@@H](N2CCCC2)CC3)nn1-c1cc2c(nn1)-c1ccccc1CCC2 [Bemcentinib] + CC(C)C[C@H](NC(=O)[C@H](Cc1ccccc1)NC(=O)c1cnccn1)B(O)O [Bortezomib] (partner 0.002 µM)
Outline: as §1

Bemcentinib + Olaparib = compound: Nc1nc(Nc2ccc3c(c2)CC[C@@H](N2CCCC2)CC3)nn1-c1cc2c(nn1)-c1ccccc1CCC2 [Bemcentinib] + O=C(c1cc(Cc2n[nH]c(=O)c3ccccc23)ccc1F)N1CCN(C(=O)C2CC2)CC1 [Olaparib] (partner 8 µM)
Outline: as §1

[1] = compound: CC1=CC=C(C=C1)C(=O)CN2C3=C(CCCC3)SC2=N [Pifithrin_alpha] + Cc1cc(Nc2cc(N3CCN(C)CC3)nc(Sc3ccc(NC(=O)C4CC4)cc3)n2)n[nH]1 [Tozasertib] (partner 0.1 µM)
Outline: as §1

Cell Line	relative viability (Bemcentinib + Pictilisib; first compound 0.04 µM)	relative viability (Bemcentinib + Pictilisib; first compound 0.1265 µM)	relative viability (Bemcentinib + Pictilisib; first compound 0.4 µM)	relative viability (Bemcentinib + Pictilisib; first compound 1.265 µM)	relative viability (Bemcentinib + Pictilisib; first compound 4 µM)	relative viability (Bemcentinib + Bortezomib; first compound 0.04 µM)	relative viability (Bemcentinib + Bortezomib; first compound 0.1265 µM)	relative viability (Bemcentinib + Bortezomib; first compound 0.4 µM)	relative viability (Bemcentinib + Bortezomib; first compound 1.265 µM)	relative viability (Bemcentinib + Bortezomib; first compound 4 µM)	relative viability (Bemcentinib + Olaparib; first compound 0.04 µM)	relative viability (Bemcentinib + Olaparib; first compound 0.1265 µM)	relative viability (Bemcentinib + Olaparib; first compound 0.4 µM)	relative viability (Bemcentinib + Olaparib; first compound 1.265 µM)	relative viability (Bemcentinib + Olaparib; first compound 4 µM)	relative viability ([1]; first compound 1 µM)	relative viability ([1]; first compound 3.162 µM)	relative viability ([1]; first compound 10 µM)	relative viability ([1]; first compound 31.62 µM)	relative viability ([1]; first compound 100 µM)
NCI-H2009	0.753	0.928	0.855	0.914	0.888	0.986	1.05	1.09	1.09	1.19	0.651	0.778	0.734	0.698	0.697	0.822	0.755	0.693	0.413	0.495
NCI-H1944	0.356	0.342	0.371	0.357	0.343	–	–	–	–	–	0.413	0.414	0.418	0.436	0.424	0.236	0.225	0.23	0.191	0.19
SW 1573	0.409	0.532	0.618	0.488	0.494	1.09	0.973	1.14	0.97	1.15	0.504	0.437	0.558	0.465	0.438	0.184	0.165	0.177	0.204	0.174
NCI-H1975	0.279	0.291	0.301	0.28	0.277	0.381	0.347	0.417	0.433	0.44	0.803	0.954	0.951	0.849	0.749	0.592	0.431	0.181	0.141	0.203
NCI-H661	0.318	0.449	0.422	0.357	0.369	0.782	0.92	0.887	0.772	0.899	0.692	0.782	0.789	0.738	0.763	0.359	0.354	0.358	0.355	0.346
UMC-11	0.615	0.929	0.902	0.585	0.85	0.413	0.771	0.724	0.428	0.682	0.366	0.678	0.322	0.352	0.384	0.179	0.207	0.198	0.19	0.175
NCI-H1648	–	–	–	–	–	–	–	–	–	–	1.3	0.925	0.746	0.777	0.695	0.592	0.513	0.393	0.47	0.421
NCI-H1792	0.3	0.281	0.238	0.337	0.288	1.02	1.17	1.19	1.04	1.03	0.496	0.353	0.538	0.391	0.498	–	–	–	–	–
NCI-H1563	0.634	0.629	0.635	0.655	0.626	0.811	0.86	0.859	0.992	0.863	–	–	–	–	–	–	–	–	–	–
NCI-H2170	0.267	0.324	0.352	0.259	0.311	–	–	–	–	–	0.563	0.661	0.567	0.583	0.589	0.624	0.704	0.602	0.541	0.462
SW 900	–	–	–	–	–	–	–	–	–	–	0.841	1.17	0.804	0.769	0.817	0.53	0.358	0.372	0.27	0.364
A549	0.524	0.445	0.579	0.534	0.494	–	–	–	–	–	0.264	0.279	0.323	0.167	0.342	–	–	–	–	–
NCI-H1623	–	–	–	–	–	–	–	–	–	–	–	–	–	–	–	0.42	0.528	0.432	0.358	0.349
NCI-H2342	–	–	–	–	–	–	–	–	–	–	0.43	0.441	0.359	0.486	0.463	0.514	0.486	0.494	0.453	0.454
NCI-H1299	0.818	0.793	0.878	0.874	0.75	0.981	1.03	1.03	1.04	1.09	1.01	1.02	0.961	1	0.93	–	–	–	–	–
NCI-H1793	0.414	0.38	0.454	0.395	0.361	–	–	–	–	–	0.852	1.16	0.987	0.961	0.842	–	0.272	0.277	0.276	0.218
NCI-H1395	0.787	0.619	0.83	0.612	0.674	–	–	–	–	–	–	0.474	0.462	0.497	0.463	0.642	0.755	0.657	0.627	0.688
NCI-H522	–	–	–	–	–	–	–	–	–	–	0.739	0.696	0.593	0.556	0.652	0.585	0.55	0.592	0.522	0.593
EBC-1	0.391	0.307	0.39	0.399	0.353	0.585	0.547	0.525	0.458	0.585	0.773	0.73	0.693	0.691	0.754	–	–	–	–	–
Calu-6	0.917	1.15	1.1	0.953	1.03	1.05	1.07	1.07	1.08	1.12	0.525	0.573	0.614	0.535	0.57	–	–	–	–	–
LK-2	0.526	0.608	0.583	0.748	0.611	–	–	–	–	–	0.694	0.756	0.837	0.839	0.677	0.188	0.134	0.146	–	0.152
NCI-H1703	0.246	0.259	0.23	0.22	0.243	0.25	0.237	0.292	0.284	0.29	0.34	0.447	0.465	0.389	0.357	–	–	–	–	–
